Source: PubChem BioAssay AID1919014 (Molecular Pharmacology Branch, DTP, NCI, 2023)

Test system: NCI-H1341 complex spheroids, percent test/control
Assay: Anticancer human tumor NCI-H1341 cell line growth inhibition [AhR];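 also: spheroids exposed to agents for seven days before readout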
Conditions: for IC50: curve of first compound; for viability, T/C: stronger effect = lower value
Outline: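 Spheroids combined tumor cells with HUVEC endothelial cells and human MSCs as stroma. AhR antagonists were paired with standard or investigational drugs, each dosed in half-log steps down from near clinical Cmax, or from 10 microM where Cmax was unknown.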

[1] = second compound 0.1 µM, first compound 0.0316 µM
[2] = second compound 0.1 µM, first compound 0.1 µM
[3] = second compound 0.1 µM, first compound 0.316 µM
[4] = second compound 0.1 µM, first compound 1 µM
[5] = second compound 0.1 µM, first compound 3.16 µM
[6] = second compound 0.1 µM, first compound 10 µM
[7] = second compound 0.316 µM, first compound 0.0316 µM
[8] = second compound 0.316 µM, first compound 0.1 µM
[9] = second compound 0.316 µM, first compound 0.316 µM
[10] = second compound 0.316 µM, first compound 1 µM
[11] = second compound 0.316 µM, first compound 3.16 µM
[12] = second compound 0.316 µM, first compound 10 µM
[13] = second compound 1 µM, first compound 0.0316 µM
[14] = second compound 1 µM, first compound 0.1 µM
[15] = second compound 1 µM, first compound 0.316 µM
[16] = second compound 1 µM, first compound 1 µM
[17] = second compound 1 µM, first compound 3.16 µM
[18] = second compound 1 µM, first compound 10 µM
[19] = second compound 3.16 µM, first compound 0.0316 µM
[20] = second compound 3.16 µM, first compound 0.1 µM
[21] = second compound 3.16 µM, first compound 0.316 µM
[22] = second compound 3.16 µM, first compound 1 µM
[23] = second compound 3.16 µM, first compound 3.16 µM
[24] = second compound 3.16 µM, first compound 10 µM
[25] = second compound 10 µM, first compound 0.0316 µM
[26] = second compound 10 µM, first compound 0.1 µM
[27] = second compound 10 µM, first compound 0.316 µM
[28] = second compound 10 µM, first compound 1 µM
[29] = second compound 10 µM, first compound 3.16 µM
[30] = second compound 10 µM, first compound 10 µM

## CCc1c2c(nc3ccc(O)cc13)-c1cc3c(c(=O)n1C2)COC(=O)[C@]3(O)CC + Cc1ccccc1N=Nc1ccc(NC(=O)c2ccnn2C)c(C)c1
Second compound 0.1 µM
  IC50: 13.1 nM
Second compound 0.316 µM
  IC50: 25.3 nM
Second compound 1 µM
  IC50: 17.2 nM
Second compound 3.16 µM
  IC50: 11.7 nM
Second compound 10 µM
  IC50: 9.79 nM
Second compound 0.1 µM, first compound 0.000949 µM
  viability, T/C: 107%
Second compound 0.1 µM, first compound 0.003 µM
  viability, T/C: 67.5%
Second compound 0.1 µM, first compound 0.00949 µM
  viability, T/C: 53.4%
Second compound 0.1 µM, first compound 0.03 µM
  viability, T/C: 44.3%
Second compound 0.1 µM, first compound 0.0949 µM
  viability, T/C: 37%
Second compound 0.1 µM, first compound 0.3 µM
  viability, T/C: 15.3%
Second compound 0.316 µM, first compound 0.000949 µM
  viability, T/C: 92.9%
Second compound 0.316 µM, first compound 0.003 µM
  viability, T/C: 84%
Second compound 0.316 µM, first compound 0.00949 µM
  viability, T/C: 53.2%
Second compound 0.316 µM, first compound 0.03 µM
  viability, T/C: 49.5%
Second compound 0.316 µM, first compound 0.0949 µM
  viability, T/C: 40.1%
Second compound 0.316 µM, first compound 0.3 µM
  viability, T/C: 16.5%
Second compound 1 µM, first compound 0.000949 µM
  viability, T/C: 85.5%
Second compound 1 µM, first compound 0.003 µM
  viability, T/C: 74.9%
Second compound 1 µM, first compound 0.00949 µM
  viability, T/C: 50.3%
Second compound 1 µM, first compound 0.03 µM
  viability, T/C: 43.5%
Second compound 1 µM, first compound 0.0949 µM
  viability, T/C: 35.5%
Second compound 1 µM, first compound 0.3 µM
  viability, T/C: 13.5%
Second compound 3.16 µM, first compound 0.000949 µM
  viability, T/C: 75.7%
Second compound 3.16 µM, first compound 0.003 µM
  viability, T/C: 58.2%
Second compound 3.16 µM, first compound 0.00949 µM
  viability, T/C: 51%
Second compound 3.16 µM, first compound 0.03 µM
  viability, T/C: 43.5%
Second compound 3.16 µM, first compound 0.0949 µM
  viability, T/C: 29.7%
Second compound 3.16 µM, first compound 0.3 µM
  viability, T/C: 12.1%
Second compound 10 µM, first compound 0.000949 µM
  viability, T/C: 54.3%
Second compound 10 µM, first compound 0.003 µM
  viability, T/C: 48.9%
Second compound 10 µM, first compound 0.00949 µM
  viability, T/C: 48.4%
Second compound 10 µM, first compound 0.03 µM
  viability, T/C: 44.8%
Second compound 10 µM, first compound 0.0949 µM
  viability, T/C: 22.6%
Second compound 10 µM, first compound 0.3 µM
  viability, T/C: 7.81%

## Nc1ccn(C2OC(CO)C(O)C2(F)F)c(=O)n1 (stereo not given) + Cc1ccccc1N=Nc1ccc(NC(=O)c2ccnn2C)c(C)c1
Second compound 0.1 µM
  IC50: < 31.6 nM
Second compound 0.316 µM
  IC50: < 31.6 nM
Second compound 1 µM
  IC50: < 31.6 nM
Second compound 3.16 µM
  IC50: < 31.6 nM
Second compound 10 µM
  IC50: < 31.6 nM
[1]
  viability, T/C: 33.4%
[2]
  viability, T/C: 38.5%
[3]
  viability, T/C: 43.6%
[4]
  viability, T/C: 34.7%
[5]
  viability, T/C: 32.5%
[6]
  viability, T/C: 34.7%
[7]
  viability, T/C: 40.3%
[8]
  viability, T/C: 38%
[9]
  viability, T/C: 34.7%
[10]
  viability, T/C: 39.6%
[11]
  viability, T/C: 31.6%
[12]
  viability, T/C: 38.5%
[13]
  viability, T/C: 43%
[14]
  viability, T/C: 42.7%
[15]
  viability, T/C: 35.5%
[16]
  viability, T/C: 32.3%
[17]
  viability, T/C: 31.1%
[18]
  viability, T/C: 35.3%
[19]
  viability, T/C: 45%
[20]
  viability, T/C: 38.5%
[21]
  viability, T/C: 38.7%
[22]
  viability, T/C: 32.3%
[23]
  viability, T/C: 36.9%
[24]
  viability, T/C: 32.5%
[25]
  viability, T/C: 44.2%
[26]
  viability, T/C: 40.4%
[27]
  viability, T/C: 41.4%
[28]
  viability, T/C: 34.9%
[29]
  viability, T/C: 29.7%
[30]
  viability, T/C: 39.3%

## O=C(c1cc(Cc2n[nH]c(=O)c3ccccc23)ccc1F)N1CCN(C(=O)C2CC2)CC1 + Cc1ccccc1N=Nc1ccc(NC(=O)c2ccnn2C)c(C)c1
Second compound 0.1 µM
  IC50: > 10000 nM
Second compound 0.316 µM
  IC50: > 10000 nM
Second compound 1 µM
  IC50: > 10000 nM
Second compound 3.16 µM
  IC50: > 10000 nM
Second compound 10 µM
  IC50: > 10000 nM
[1]
  viability, T/C: 94%
[2]
  viability, T/C: 83.4%
[3]
  viability, T/C: 93.9%
[4]
  viability, T/C: 86.4%
[5]
  viability, T/C: 104%
[6]
  viability, T/C: 69.4%
[7]
  viability, T/C: 87.4%
[8]
  viability, T/C: 84.5%
[9]
  viability, T/C: 97.4%
[10]
  viability, T/C: 71.2%
[11]
  viability, T/C: 72.8%
[12]
  viability, T/C: 59.1%
[13]
  viability, T/C: 94.2%
[14]
  viability, T/C: 97.8%
[15]
  viability, T/C: 68.8%
[16]
  viability, T/C: 78.3%
[17]
  viability, T/C: 81.2%
[18]
  viability, T/C: 69.1%
[19]
  viability, T/C: 67.6%
[20]
  viability, T/C: 72.1%
[21]
  viability, T/C: 65.7%
[22]
  viability, T/C: 74%
[23]
  viability, T/C: 60.9%
[24]
  viability, T/C: 57.3%
[25]
  viability, T/C: 46.2%
[26]
  viability, T/C: 50.3%
[27]
  viability, T/C: 56.3%
[28]
  viability, T/C: 58.6%
[29]
  viability, T/C: 51.2%
[30]
  viability, T/C: 47.5%
